Source: PMC6470675, “Design and Synthesis of New Quinoxaline Derivatives as Anticancer Agents and Apoptotic Inducers” (Molecules, 2019)
Read-outs that look alike come from different tables or passages of the source.

Columns and labels:
[1] = system: Hep G2 human hepatocellular carcinoma cell line; assay: In vitro cell proliferation (MTT) assay, Hep G2; format: cell-based; conditions: for IC50: Homo sapiens, HepG2, MTT, 72 h exposure
Protocol: (§1) The targeted compounds were tested for their in-vitro anti-cancer activity against three tumor cell lines (HCT116, Hep G2 and MCF-7). Doxorubicin was included in the experiments as a reference cytotoxic compound. Exponentially growing cells from different cancer cell lines were trypsinized, counted and seeded at the appropriate densities into 96-well microtiter plates. Cells then were incubated in a humidified atmosphere at 37 °C for 24 h. Then, cells were exposed to different concentrations of compounds for 72 h. Then the viability of treated cells was determined using MTT technique (described latter).
(§2) Three cancer cell lines including human colon carcinoma (HCT116), human breast adenocarcinoma (MCF-7) and human hepatocellular carcinoma (Hep G2), were purchased from American Type Cell Culture Collection (ATCC, Manassas, VA, USA) and grown on the appropriate growth medium Dulbecco’s modified Eagle’s medium (DMEM) or Roswell Park Memorial Institute medium (RPMI 1640) supplemented with […] of streptomycin, 100 units/mL of penicillin and 10% of heat-inactivated fetal bovine serum in a humidified, 5% (v/v) CO2 atmosphere at 37 °C [34]. Cytotoxicity assay by 3-[4,5-dimethylthiazole-2-yl]-2,5-diphenyltetrazolium bromide (MTT).
(§3) Exponentially growing cells from different cancer cell lines were trypsinized, counted and seeded at the appropriate densities (2000–1000 cells/0.33 cm^2 well) into 96-well microtiter plates. Cells then were incubated in a humidified atmosphere at 37 °C for 24 h. Then, cells were exposed to different concentrations of compounds (0.1, 10, 100, 1000 µM) for 72 h. Then the viability of treated cells was determined using MTT technique as follow. Media were removed; cells were incubated with 200 μL of 5% MTT solution/well (Sigma Aldrich, Darmstadt, Germany) and were allowed to metabolize the dye into a colored-insoluble formazan crystal for 2 h. The remaining MTT solution were discarded from the wells and the formazan crystals were dissolved in 200 µl/well acidified isopropanol for 30 min, covered with aluminum foil and with continuous shaking using a MaxQ 2000 plate shaker (Thermo Fisher Scientific Inc, Waltham, MA, USA) at room temperature. Absorbance were measured at 570 nm using a Stat Fax^R 4200 plate reader (Awareness Technology, Inc., Awareness Technology, FL, USA). The cell viability was expressed as percentage of control and the concentration that induces 50% of maximum inhibition of cell proliferation (IC50) were determined using Graph Pad Prism version 5 software (Graph Pad Software Inc, San Diego, CA, USA) (1,2).

[2] = system: MCF-7 human breast adenocarcinoma cell line; assay: In vitro cell proliferation (MTT) assay, MCF-7; format: cell-based; conditions: for IC50: Homo sapiens, MCF7, MTT, 72 h exposure
Protocol: as §1, §2, §3

[3] = system: HCT116 human colon carcinoma cell line; assay: In vitro cell proliferation (MTT) assay, HCT116; format: cell-based; conditions: for IC50: Homo sapiens, HCT-116, MTT, 72 h exposure
Protocol: as §1, §2, §3

VEGFR-2 = biological target: T1, VEGFR-2 (Homo sapiens, UniProt P35968); assay: In vitro VEGFR-2 inhibition assay (Kinase-Glo Plus luminescence); format: biochemical; conditions: read-out: % of VEGFR-2 Inhibition
T1 construct: purchased Bio Science Corporation (BPS), San Diego, CA, USA
T1 sequence (P35968 20-1356): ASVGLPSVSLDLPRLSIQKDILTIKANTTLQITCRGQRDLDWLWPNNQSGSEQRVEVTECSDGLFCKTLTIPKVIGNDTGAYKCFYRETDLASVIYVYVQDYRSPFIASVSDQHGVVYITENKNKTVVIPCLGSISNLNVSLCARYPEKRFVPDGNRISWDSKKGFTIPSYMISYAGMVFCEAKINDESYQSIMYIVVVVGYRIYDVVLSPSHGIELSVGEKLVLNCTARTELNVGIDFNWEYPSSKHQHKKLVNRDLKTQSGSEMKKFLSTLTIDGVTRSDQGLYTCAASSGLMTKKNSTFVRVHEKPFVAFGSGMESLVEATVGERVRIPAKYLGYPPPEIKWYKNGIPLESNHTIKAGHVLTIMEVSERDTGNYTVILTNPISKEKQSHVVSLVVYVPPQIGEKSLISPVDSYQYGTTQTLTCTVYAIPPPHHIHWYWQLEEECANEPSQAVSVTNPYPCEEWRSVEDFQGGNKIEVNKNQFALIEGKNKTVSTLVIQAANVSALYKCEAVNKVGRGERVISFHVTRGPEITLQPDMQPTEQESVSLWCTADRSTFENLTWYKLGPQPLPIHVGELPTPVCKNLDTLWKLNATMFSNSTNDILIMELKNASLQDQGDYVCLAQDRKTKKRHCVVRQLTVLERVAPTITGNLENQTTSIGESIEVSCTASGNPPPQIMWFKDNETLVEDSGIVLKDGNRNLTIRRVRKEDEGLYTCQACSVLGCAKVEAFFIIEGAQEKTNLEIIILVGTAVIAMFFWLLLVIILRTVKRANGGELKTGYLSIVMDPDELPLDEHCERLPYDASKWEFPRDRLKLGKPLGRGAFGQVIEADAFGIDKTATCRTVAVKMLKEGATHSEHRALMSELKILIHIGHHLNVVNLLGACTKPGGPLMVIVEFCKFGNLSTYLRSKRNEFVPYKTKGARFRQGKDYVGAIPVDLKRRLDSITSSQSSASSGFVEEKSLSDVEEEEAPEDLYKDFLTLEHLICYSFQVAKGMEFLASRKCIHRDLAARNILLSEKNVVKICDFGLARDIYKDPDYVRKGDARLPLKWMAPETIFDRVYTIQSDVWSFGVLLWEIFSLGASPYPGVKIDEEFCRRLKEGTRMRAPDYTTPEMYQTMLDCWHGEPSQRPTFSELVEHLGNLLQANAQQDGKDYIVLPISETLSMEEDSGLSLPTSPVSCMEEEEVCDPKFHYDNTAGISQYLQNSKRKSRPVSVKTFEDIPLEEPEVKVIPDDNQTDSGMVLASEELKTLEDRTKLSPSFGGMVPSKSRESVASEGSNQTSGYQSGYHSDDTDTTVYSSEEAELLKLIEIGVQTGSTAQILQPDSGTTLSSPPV
Protocol: In an attempt to investigate the possible mechanism of action of the synthesized compounds based on structural similarity with sorafenib, all of them were tested for VEGFR-2 inhibitory activity at Bio Science Corporation (BPS, San Diego, CA, USA). The assay was performed using the Kinase-Glo Plus luminescence kinase assay kit (Promega, San Diego, CA, USA). It measures kinase activity by quantitating the amount of ATP remaining in solution following a kinase reaction. […].
The in-vitro enzyme inhibition determination for the synthesized compounds was carried out at Bio Science Corporation (BPS)-San Diego, CA, USA. The assay was performed using Kinase-Glo Plus luminescence kinase assay kit (Promega), where the kinase activity was measured by quantitating the amount of ATP remaining in solution following a kinase reaction. The luminescent signal from the assay is correlated with the amount of ATP present and is inversely correlated with the amount of kinase activity. Our compounds were diluted with 10% DMSO and 5 µL of the dilution was added to a 50 µL reaction so that the final concentration of DMSO is 1% in all of reactions. All of the enzymatic reactions were conducted at 30 °C for 40 min. The 50 µL reaction mixture contains 40 mM Tris, pH 7.4, 10 mM MgCl2, 0.1 mg/mL BSA, 1 mM DTT, 10 µM ATP, Kinase substrate and the enzyme. After the enzymatic reaction, 50 µL of Kinase-Glo Plus Luminescence kinase assay solution (Promega San Diego, CA, USA) was added to each reaction and incubate the plate for 5 min at room temperature. Luminescence signal was measured using a BioTek Synergy 2 microplate reader.
Kinase activity assays were performed in duplicate at each concentration. The luminescence data were analyzed using the computer software, Graphpad Prism. The difference between luminescence intensities in the absence of Kinase (Lut) and in the presence of Kinase (Luc) was defined as 100% activity (Lut − Luc). Using luminescence signal (Lu) in the presence of the compound, % activity was calculated as:% activity = {(Lut − Lu)(Lut − Luc)} × 100% where Lu = the luminescence intensity in the presence of the compound.

[4] = system: three tumor cell lines (HCT116, Hep G2 and MCF-7); assay: In vitro anti-cancer activity stated for the tested cell lines together; format: cell-based, human; conditions: HCT116, Hep G2 and MCF-7 together
Protocol: as §1, §2
Exponentially growing cells from different cancer cell lines were trypsinized, counted and seeded at the appropriate densities (2000–1000 cells/0.33 cm^2 well) into 96-well microtiter plates. Cells then were incubated in a humidified atmosphere at 37 °C for 24 h. Then, cells were exposed to different concentrations of compounds (0.1, 10, 100, 1000 µM) for 72 h. Then the viability of treated cells was determined using MTT technique as follow. Media were removed; cells were incubated with 200 μL of 5% MTT solution/well (Sigma Aldrich, Darmstadt, Germany) and were allowed to metabolize the dye into a colored-insoluble formazan crystal for 2 h. […] Absorbance were measured at 570 nm using a Stat Fax^R 4200 plate reader (Awareness Technology, Inc., Awareness Technology, FL, USA). […]

Row | SMILES | IC50 [1] [µM] | melting point [°C] | IC50 [2] [µM] | IC50 [3] [µM] | inhibition at 10 µM (VEGFR-2; single concentration of 10 µM) [%] | anti-cancer activity against Hep G2 cell line (in words) [1] | loss of activity towards Hep G2 on conversion of thiourea VIIIa into the urea ([1]; relative to VIIIa) [fold] | anti-cancer activity against MCF-7 cell line (in words) [2] | anti-cancer activity against HCT116 cell line (in words) [3] | activity against the tested cell lines (in words) [4] | inhibition at 10 µM (VEGFR-2) [%]
1 | CN[C@@H]1C[C@H]2O[C@@](C)([C@@H]1OC)n1c3ccccc3c3c4c(c5c6ccccc6n2c5c31)C(=O)NC4 [Staurosporine, staurosporine, reference compound] | – | – | – | – | – | – | – | – | – | – | 100
2 | Cc1nc2ccccc2nc1Nc1cccc(C(=O)Nc2ccc(Cl)cc2)c1 [VIb, N-(4-Chlorophenyl)-3-((3-methylquinoxalin-2-yl)amino)benzamide] | 955 | 240 to 241 | 692 | 537 | – | – | – | – | – | no significant inhibitory activity | –
3 | Cc1ccc(S(=O)(=O)Nc2ccc(Nc3nc4ccccc4nc3Cl)cc2)cc1 [XVIIIa, N-(4-((3-Chloroquinoxalin-2-yl)amino)phenyl)-4-methylbenzenesulfonamide] | 490 | 250 to 252 | 537 | 302 | 4 | – | – | – | – | – | –
4 | O=[N+]([O-])c1ccc(S(=O)(=O)Nc2ccc(Nc3nc4ccccc4nc3Cl)cc2)cc1 [XVIIIb, N-(4-((3-Chloroquinoxalin-2-yl)amino)phenyl)-4-nitrobenzenesulfonamide] | > 1000 | > 300 | 55 | > 1000 | 9 | – | – | – | – | – | –
5 | S=C(Nc1ccccc1)Nc1ccc(Nc2nc3ccccc3nc2Cl)cc1 [XVIIa, 1-(4-((3-Chloroquinoxalin-2-yl)amino)phenyl)-3-phenylthiourea] | 575 | 190 to 191 | 170 | 309 | 10 | – | – | – | – | – | –
6 | O=C(Nc1ccccc1)Nc1ccc(Nc2nc3ccccc3nc2Cl)cc1 [XVIIb, 1-(4-((3-Chloroquinoxalin-2-yl)amino)phenyl)-3-phenylurea] | 513 | 280 to 281 | 148 | 170 | 10 | – | – | – | – | – | –
7 | O=C(Nc1ccc(Cl)cc1)Nc1ccc(Nc2nc3ccccc3nc2Cl)cc1 [XVIIc, 1-(4-Chlorophenyl)-3-(4-((3-chloroquinoxalin-2-yl)amino)phenyl)urea] | 616 | > 300 | 692 | 257 | 6 | – | – | – | – | – | –
8 | Cc1cccc(NC(=O)Nc2ccc(Nc3nc4ccccc4nc3Cl)cc2)c1 [XVIId, 1-(4-((3-Chloroquinoxalin-2-yl)amino)phenyl)-3-(m-tolyl) urea] | 513 | > 300 | 64.5 | 190 | 5 | – | – | – | – | – | –
9 | O=C(Nc1ccc(Nc2nc3ccccc3nc2Cl)cc1)c1ccccc1 [XVIa, N-(4-((3-Chloroquinoxalin-2-yl)amino)phenyl)benzamide] | 513 | 270 to 273 | 324 | 347 | 8 | – | – | – | – | – | –
10 | O=C(Nc1ccc(Nc2nc3ccccc3nc2Cl)cc1)c1ccc(Cl)cc1 [XVIb, 4-Chloro-N-(4-((3-chloroquinoxalin-2-yl)amino)phenyl) benzamide] | > 1000 | 233 to 235 | > 1000 | > 1000 | 4 | – | – | – | – | – | –
11 | COc1ccc(C(=O)Nc2ccc(Nc3nc4ccccc4nc3Cl)cc2)cc1 [XVIc, N-(4-((3-Chloroquinoxalin-2-yl)amino)phenyl)-4-methoxybenzamide] | > 1000 | 235 to 236 | > 1000 | > 1000 | 4 | – | – | – | – | – | –
12 | Cc1ccc(C(=O)Nc2ccc(Nc3nc4ccccc4nc3Cl)cc2)cc1 [XVId, N-(4-((3-Chloroquinoxalin-2-yl)amino)phenyl)-4-methylbenzamide] | – | 245 to 246 | – | – | 3 | – | – | – | – | – | –

Continued, in another order:

Row | IC50 [1] [µM] | melting point [°C] | IC50 [2] [µM] | IC50 [3] [µM] | inhibition at 10 µM (VEGFR-2; single concentration of 10 µM) [%] | SMILES | anti-cancer activity against Hep G2 cell line (in words) [1] | loss of activity towards Hep G2 on conversion of thiourea VIIIa into the urea ([1]; relative to VIIIa) [fold] | anti-cancer activity against MCF-7 cell line (in words) [2] | anti-cancer activity against HCT116 cell line (in words) [3] | activity against the tested cell lines (in words) [4] | inhibition at 10 µM (VEGFR-2) [%]
13 | 98 | > 300 | 13.5 | 38 | 4 | Cc1nc2ccccc2nc1Nc1ccc(NC(=O)Nc2ccccc2)cc1 [Compound VIIIb, 1-(4-((3-Methylquinoxalin-2-yl)amino)phenyl)-3-phenylurea] | no significant inhibitory activity | 10 | moderate activity | weak activity | – | –
14 | 36 | 280 to 281 | 30 | 11 | 5 | Cc1cccc(NC(=O)Nc2ccc(Nc3nc4ccccc4nc3C)cc2)c1 [Compound VIIId, 1-(4-((3-Methylquinoxalin-2-yl)amino)phenyl)-3-(m-tolyl)urea] | weak activity | – | weak activity | moderate anti-cancer activity | – | –
15 | 115 | 234 to 235 | 138 | 27.5 | 4 | Cc1nc2ccccc2nc1Nc1ccc(NC(=O)c2ccc(Cl)cc2)cc1 [Compound VIIb, 4-Chloro-N-(4-((3-methylquinoxalin-2-yl)amino)phenyl)benzamide] | – | – | – | weak activity | – | –
16 | 27.5 | 283 to 285 | 21.4 | 15.5 | 7 | O=C(Nc1ccc(Cl)cc1)c1cccc(Nc2nc3ccccc3nc2Cl)c1 [Compound XVb, N-(4-Chlorophenyl)-3-((3-chloroquinoxalin-2-yl)amino)benzamide] | – | – | – | – | moderate to weak activities | –
17 | 1.2 | – | 0.9 | 0.62 | – | COc1cccc2c1C(=O)c1c(O)c3c(c(O)c1C2=O)C[C@@](O)(C(=O)CO)C[C@@H]3O[C@H]1C[C@H](N)[C@H](O)[C@H](C)O1 [Doxorubicin, reference compound] | – | – | – | – | – | –
18 | 22.9 | 198 to 199 | 22.9 | 21.9 | 3 | Cc1ccc(S(=O)(=O)Nc2ccc(Nc3nc4ccccc4nc3C)cc2)cc1 [IXa, 4-Methyl-N-(4-((3-methylquinoxalin-2-yl)amino)phenyl) benzenesulphonamide] | – | – | – | – | – | –
19 | 24.5 | 180 to 182 | 10.2 | 12 | 3 | Cc1nc2ccccc2nc1Nc1ccc(NS(=O)(=O)c2ccc([N+](=O)[O-])cc2)cc1 [IXb, N-(4-((3-Methylquinoxalin-2-yl)amino)phenyl)-4-nitrobenzenesulfonamide] | – | – | – | – | – | –
